Structures can show the parent of a compound that is named as a salt.

We go through 29 molecules from US9255090B2, “Heterocyclyl derivatives and their use as prostaglandin D2 receptor modulators” (Actelion Pharmaceuticals Ltd., priority 2012, dated 2016).

The test addresses hCRTH2 receptor (Homo sapiens (Human), UniProt Q9Y5Y4). In words: hCRTH2 receptor membranes radioligand (3H-PGD2) displacement assay. It counts as binding. As to conditions: 3H-PGD2 radioligand displacement, HEK293-hCRTH2 membranes. The protocol:
Biological Assays: Preparation of hCRTH2 Receptor Membranes and Radioligand Displacement Assay:
First, recombinant HEK293-hCRTH2 cells were detached from culture plates into 5 ml buffer A/plate (Buffer A: 5 mM Tris, 1 mM MgCl2-6H2O pH=7.4) using a rubber policeman. Cells were then transferred into centrifugation tubes and centrifuged for 5 min at 400 g. The cell pellet was resuspended in the same buffer and tubes were frozen at −80° C. Cells were thawed and membrane fragments were generated by homogenization using a polytron homogenizer (30 seconds). The membrane fragments were then centrifuged at 3000 g for 20 minutes and resuspended in buffer C (Buffer C: 75 mM Tris, 25 mM MgCl2, 250 mM Saccharose pH 7.4). Aliquots of membrane fragments were stored at −20° C.
Binding assay was performed in a final assay volume of 250 μl. First, 25 μl of test compound, previously diluted in Binding-Buffer (Binding-Buffer: 50 mM Tris-Base, 100 mM NaCl, 1 mM EDTA, 0.1% BSA (protease free), 0.01% NaN3, 10 mM MnCl2, pH 7.0) was placed into each well. After addition of 75 μl Binding-Buffer, 50 μl of the radioligand ^3H-PGD2 (at 2.5 nM (220.000 dpm/well) from ANAWA ART0662) was added to each well. Binding assay was started by addition of 100 μl CRTH2 membrane fragments, reaching a final concentration of 20 μg/well. For non-specific binding, PGD2 was added to the reaction mixture to […] final concentration. This assay mix was incubated for 90 minutes at room temperature and then filtered through a GF/C filter 96-well plate which was pre-soaked for 3 hours in 0.5% polyethyleneimine (PEI). The filter-wells were washed three times with ice cold Binding-Buffer. Then, 40 μl of Microscint-40 (Packard) was added to each well and the retained radioactivity quantified in a Topcount (Packard).

Sequence of hCRTH2 receptor (Q9Y5Y4 whole entry): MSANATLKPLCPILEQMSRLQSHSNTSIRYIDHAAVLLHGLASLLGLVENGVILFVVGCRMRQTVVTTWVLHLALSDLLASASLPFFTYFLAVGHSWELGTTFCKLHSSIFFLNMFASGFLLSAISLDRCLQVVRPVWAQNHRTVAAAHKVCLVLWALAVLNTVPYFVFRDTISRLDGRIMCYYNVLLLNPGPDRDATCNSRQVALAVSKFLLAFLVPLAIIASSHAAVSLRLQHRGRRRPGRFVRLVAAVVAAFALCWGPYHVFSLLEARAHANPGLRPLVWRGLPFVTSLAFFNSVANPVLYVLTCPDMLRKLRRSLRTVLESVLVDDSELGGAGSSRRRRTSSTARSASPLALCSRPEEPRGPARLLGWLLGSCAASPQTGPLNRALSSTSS

For orientation: IC50 means the point on the concentration scale where inhibition reaches its midpoint. A higher IC50 goes with lower potency. With `CC(C)(C)Oc1ccc(CC(=O)O)cc1-c1ccc(F)c2c1CN(C(=O)[C@@H]1C[C@H]1c1ccccc1)CC2` [Example 428, {4-tert-Butoxy-3-[5-fluoro-2-((1R,2R)-2-phenyl-cyclopropanecarbonyl)-1,2,3,4-tetrahydro-isoquinolin-8-yl]-phenyl}-acetic acid], the IC50 is 3.7 nM.

As for `COc1ccc(CC(=O)O)cc1-c1ccc(F)c2c1CCN(C(=O)CCc1ccccc1)C2` [Example 101, {3-[8-Fluoro-2-(3-phenyl-propionyl)-1,2,3,4-tetrahydro-isoquinolin-5-yl]-4-methoxy-phenyl}-acetic acid], the half-inhibitory concentration (IC50) worked out at 64.7 nM.

`COc1ccc(CC(=O)O)cc1-c1ccc(F)c2c1CN(C(=O)[C@@H]1C[C@H]1c1cccc(Cl)c1)CC2` (racemic) [Example 4, (±)-(3-{2-[trans-2-(3-Chloro-phenyl)-cyclopropanecarbonyl]-5-fluoro-1,2,3,4-tetrahydro-isoquinolin-8-yl}-4-methoxy-phenyl)-acetic acid] came in with a half-maximal inhibitory concentration (IC50) of 5.39 nM.

`O=C(O)Cc1ccc(OCC(F)(F)F)c(-c2ccc(F)c3c2CN(C(=O)CC2OCCc4ccccc42)CC3)c1` (racemic) [Example 306] had an IC50 of 7.4 nM.

`COc1ccc(CC(=O)O)cc1-c1ccc(F)c2c1CN(C(=O)CC1CCCc3ccncc31)CC2` (racemic) [Example 247, hydrochloride]: the half-maximal inhibitory concentration (IC50) came out at 484 nM.

Regarding `O=C(O)Cc1cc2c(c(-c3ccc(F)c4c3CN(C(=O)OCc3ccccc3)CC4)c1)OCO2` [Example 167, 8-(6-Carboxymethyl-benzo[1,3]dioxol-4-yl)-5-fluoro-3,4-dihydro-1H-isoquinoline-2-carboxylic acid benzyl ester], the IC50 was 15.4 nM.

For the molecule `COc1cccc(CC(=O)O)c1-c1ccc(F)c2c1CN(C(=O)OCc1ccccc1)CC2` [Example 418, 8-(2-Carboxymethyl-6-methoxy-phenyl)-5-fluoro-3,4-dihydro-1H-isoquinoline-2-carboxylic acid benzyl ester], the IC50 was 352 nM.

The molecule `COc1ccc(CC(=O)O)cc1-c1ccc(F)c2c1CN(C(=O)OCc1cnc(C)s1)CC2` [Example 151, 8-(5-Carboxymethyl-2-methoxy-phenyl)-5-fluoro-3,4-dihydro-1H-isoquinoline-2-carboxylic acid 2-methyl-thiazol-5-ylmethyl ester] displayed a concentration for half-maximal inhibition (IC50) of 5.73 nM.

As for `COc1ccc(CC(=O)O)cc1-c1ccc(F)c2c1CCN(C(=O)CCN1CCCc3ccccc31)C2` [Example 104, {3-[2-(3-3,4-Dihydro-2H-quinolin-1-yl-propionyl)-8-fluoro-1,2,3,4-tetrahydro-isoquinolin-5-yl]-4-methoxy-phenyl}-acetic acid], the IC50 turned out to be 21.3 nM.

Take `COc1ccc(CC(=O)O)cc1-c1ccc(F)c2c1CN(C(=O)Cc1n[nH]c3ccccc13)CC2` [Example 124, {3-[5-Fluoro-2-(2-1H-indazol-3-yl-acetyl)-1,2,3,4-tetrahydro-isoquinolin-8-yl]-4-methoxy-phenyl}-acetic acid]: the IC50 is 10.5 nM.

`O=C(O)Cc1ccc(-c2ccc(F)c3c2CN(C(=O)OCc2ccccc2)CC3)c(F)c1` [Example 164, 8-(4-Carboxymethyl-2-fluoro-phenyl)-5-fluoro-3,4-dihydro-1H-isoquinoline-2-carboxylic acid benzyl ester]: the IC50 was 47.3 nM.

In turn, `COc1ccc(CC(=O)O)cc1-c1ccc(F)c2c1CN(C(=O)CCn1cc(C)c3ccccc31)CC2` [Example 57, (3-{5-Fluoro-2-[3-(3-methyl-indol-1-yl)-propionyl]-1,2,3,4-tetrahydro-isoquinolin-8-yl}-4-methoxy-phenyl)-acetic acid] registered an IC50 of 16.2 nM.

Consider `COc1ccc(CC(=O)O)cc1-c1ccc(F)c2c1CN(C(=O)CCc1ncccn1)CC2` [Example 93, {3-[5-Fluoro-2-(3-pyrimidin-2-yl-propionyl)-1,2,3,4-tetrahydro-isoquinolin-8-yl]-4-methoxy-phenyl}-acetic acid], for which the half-inhibitory concentration (IC50) worked out at 690 nM.

The molecule `COc1ccc(CC(=O)O)cc1-c1ccc(F)c2c1CCN(C(=O)CCCc1ccccc1)C2` [Example 100, {3-[8-Fluoro-2-(4-phenyl-butyryl)-1,2,3,4-tetrahydro-isoquinolin-5-yl]-4-methoxy-phenyl}-acetic acid] came in with a concentration for half-maximal inhibition (IC50) of 105 nM.

`COc1ccc(CC(=O)O)cc1-c1ccc(Cl)c2c1CN(C(=O)CCN1CCc3ccccc31)CC2` [Example 78, {3-[5-Chloro-2-(3-2,3-dihydro-indol-1-yl-propionyl)-1,2,3,4-tetrahydro-isoquinolin-8-yl]-4-methoxy-phenyl}-acetic acid]: the IC50 is 61.5 nM.

As to `CCOc1cc(CC(=O)O)ccc1-c1ccc(F)c2c1CN(C(=O)OCC1CCCC1)CC2` [Example 392, 8-(4-Carboxymethyl-2-ethoxy-phenyl)-5-fluoro-3,4-dihydro-1H-isoquinoline-2-carboxylic acid cyclopentylmethyl ester], the concentration for half-maximal inhibition (IC50) is 5.9 nM.

For `COc1ccc(CC(=O)O)cc1-c1ccc(F)c2c1CN(C(=O)C(C)Cc1cccnc1)CC2` (racemic) [Example 343], the concentration for half-maximal inhibition (IC50) came out at 291 nM.

`COc1ccc(CC(=O)O)cc1-c1ccc(F)c2c1CCN(C(=O)CCc1cn(C)c3ccccc13)C2` [Example 105, (3-{8-Fluoro-2-[3-(1-methyl-1H-indol-3-yl)-propionyl]-1,2,3,4-tetrahydro-isoquinolin-5-yl}-4-methoxy-phenyl)-acetic acid]: the IC50 was found to be 17.7 nM.

In turn, `COc1ccc(CC(=O)O)cc1-c1ccc(F)c2c1CN(C(=O)NCc1ccccc1Cl)CC2` [Example 134, {3-[2-(2-Chloro-benzylcarbamoyl)-5-fluoro-1,2,3,4-tetrahydro-isoquinolin-8-yl]-4-methoxy-phenyl}-acetic acid] gave a 50% inhibitory concentration (IC50) of 21.5 nM.

For the molecule `COc1ccc(CC(=O)O)cc1-c1ccc(F)c2c1CN(C(=O)CC(C)c1ccncc1)CC2` (racemic) [Example 267, (±)-{3-[5-Fluoro-2-(3-pyridin-4-yl-butyryl)-1,2,3,4-tetrahydro-isoquinolin-8-yl]-4-methoxy-phenyl}-acetic acid formiate], the IC50 worked out at 86.1 nM.

In turn, `COc1ccc(C(C)C(=O)O)cc1-c1ccc(F)c2c1CN(C(=O)OCc1ccccc1)CC2` (racemic) [Example 171, (±)-8-[5-(1-Carboxy-ethyl)-2-methoxy-phenyl]-5-fluoro-3,4-dihydro-1H-isoquinoline-2-carboxylic acid benzyl ester] came in with an IC50 of 21.2 nM.

Molecule `O=C(O)COc1cccc(-c2ccc(F)c3c2CN(C(=O)OCc2ccccc2)CC3)c1` [Example 175, 8-(3-Carboxymethoxy-phenyl)-5-fluoro-3,4-dihydro-1H-isoquinoline-2-carboxylic acid benzyl ester] had a half-maximal inhibitory concentration (IC50) of 117 nM.

Turning to `COc1ccc(CC(=O)O)cc1-c1ccc(F)c2c1CCN(C(=O)[C@@H]1C[C@H]1c1ccccc1)C2` [Example 99, {3-[8-Fluoro-2-((1R,2R)-2-phenyl-cyclopropanecarbonyl)-1,2,3,4-tetrahydro-isoquinolin-5-yl]-4-methoxy-phenyl}-acetic acid], the IC50 turned out to be 414 nM.

In the case of `CCOc1cc(CC(=O)O)ccc1-c1ccc(F)c2c1CN(C(=O)NCc1ccccc1OC)CC2` [Example 445, {3-Ethoxy-4-[5-fluoro-2-(2-methoxy-benzylcarbamoyl)-1,2,3,4-tetrahydro-isoquinolin-8-yl]-phenyl}-acetic acid], the IC50 worked out at 2.5 nM.

Turning to `COc1ccc(CC(=O)O)cc1-c1ccc(Cl)c2c1CN(C(=O)COCc1ccccc1Cl)CC2` [Example 73, (3-{5-Chloro-2-[2-(2-chloro-benzyloxy)-acetyl]-1,2,3,4-tetrahydro-isoquinolin-8-yl}-4-methoxy-phenyl)-acetic acid], the IC50 was found to be 30.2 nM.

As for `CCOc1cc(CC(=O)O)ccc1-c1ccc(F)c2c1CN(C(=O)CCc1ncccc1OC)CC2` [Example 314, (3-Ethoxy-4-{5-fluoro-2-[3-(3-methoxy-pyridin-2-yl)-propionyl]-1,2,3,4-tetrahydro-isoquinolin-8-yl}-phenyl)-acetic acid], the IC50 was 46.1 nM.

In turn, `COc1ccc(CC(=O)O)cc1-c1ccc(F)c2c1CN(C(=O)CCn1ncc3cc(F)ccc31)CC2` [Example 126, (3-{5-Fluoro-2-[3-(5-fluoro-indazol-1-yl)-propionyl]-1,2,3,4-tetrahydro-isoquinolin-8-yl}-4-methoxy-phenyl)-acetic acid] registered a concentration for half-maximal inhibition (IC50) of 9.54 nM.

`COc1ccc(CC(=O)O)cc1-c1ccc(F)c2c1CN(C(=O)CCn1ncc3ccccc31)CC2` [Example 67, {3-[5-Fluoro-2-(3-indazol-1-yl-propionyl)-1,2,3,4-tetrahydro-isoquinolin-8-yl]-4-methoxy-phenyl}-acetic acid] displayed an IC50 of 21.6 nM.

Take `CCOc1ccc(CC(=O)O)cc1-c1ccc(F)c2c1CN(C(=O)OCCOC)CC2` [Example 378, 8-(5-Carboxymethyl-2-ethoxy-phenyl)-5-fluoro-3,4-dihydro-1H-isoquinoline-2-carboxylic acid 2-methoxy-ethyl ester]: the IC50 stood at 5.9 nM.
